{
  "source": "patent US20230263806A1",
  "about": "“METHODS OF TREATING PROTEINOPATHIES” (Woolsey Pharmaceuticals, Inc., priority 2020, published 2023)",
  "origin": "cited, not measured here",
  "key": {"[1]": {"settings": "1-hydroxy (M3) metabolite, in vivo"}, "[2]": {"target": "p38 mitogen-activated protein kinase (Homo sapiens, UniProt Q16539)", "sequence (Q16539 2-360 limits assumed)": "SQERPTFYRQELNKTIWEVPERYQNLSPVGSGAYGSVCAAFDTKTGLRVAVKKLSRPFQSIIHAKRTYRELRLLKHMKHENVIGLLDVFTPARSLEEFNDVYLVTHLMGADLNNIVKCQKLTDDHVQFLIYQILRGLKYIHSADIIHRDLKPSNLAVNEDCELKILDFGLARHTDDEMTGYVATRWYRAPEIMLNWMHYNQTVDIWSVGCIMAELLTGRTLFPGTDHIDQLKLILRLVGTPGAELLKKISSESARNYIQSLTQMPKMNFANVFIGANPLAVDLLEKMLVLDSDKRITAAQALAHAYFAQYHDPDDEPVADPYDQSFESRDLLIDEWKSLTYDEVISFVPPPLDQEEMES"}, "[3]": {"tested_on": "triple transgenic mouse model (APP Swedish, MAPT P301L, and PSEN1 M146V)", "settings": "10 mg/kg/day intraperitoneally (57 mg HED)"}, "[4]": {"tested_on": "triple transgenic Mice", "settings": "10 or 12 months of age; administered in water at 30 mg/kg and 100 mg/kg"}},
  "note": "Structures can show the parent of a compound that is named as a salt.",
  "data": [
    {"smiles": "O=S(=O)(c1cccc2c(O)nccc12)N1CCCNCC1", "note": "[M3]", "values": [
      {"measurement": "half-life", "setting": "[1]", "value": "about 8 hours"}
    ]},
    {"smiles": "O=c1ncn2nc(Sc3ccc(F)cc3F)ccc2c1-c1c(Cl)cccc1Cl", "note": "[Neflamapimod]", "values": [
      {"measurement": "primary endpoint of improving episodic memory", "setting": "[2]; Phase 2", "value": "failed"},
      {"measurement": "tau in the cerebrospinal fluid", "setting": "[2]; Phase 2", "value": "reducing tau"},
      {"measurement": "Aβ deposition", "setting": "[2]; humans", "value": "no effect"}
    ]},
    {"smiles": "O=S(=O)(c1cccc2cnccc12)N1CCCNCC1", "note": "[fasudil, Hexahydro-1-(5-isoquinolinesulfonyl)-1H-1,4-diazepine Monohydrochloride Hemihydrate]", "values": [
      {"measurement": "amyloid plaques in vivo", "setting": "[3]", "value": "reduce 1 amyloid plaques"},
      {"measurement": "spatial memory", "setting": "[4]", "value": "did not observe improvements in spatial memory"}
    ]}
  ]
}
